Measurements published in patent US11780826B2 (Amgen Inc., priority 2017, dated 2023).

Legend:
Male CD rats [1] = assay: Pressure-volume loop (PV Loop) protocol (invasive hemodynamics): ejection fraction (% EF) during intravenous infusion, MEE; assay type: in vivo; design: unit not given here; details: exposure at 10% increase in % EF from baseline, rat, corrected for rat plasma protein binding
Protocol: (§1) Formulations: A compound as disclosed herein and water were admixed together. Either 30% wt/vol or 40% wt/vol of hydroxypropyl beta-cyclodextrin (HPBCD) was added and the mixture stirred until dissolved.
(§2) Echocardiography/ultrasound protocol: Serial echocardiography was conducted with the aid of an imaging system suitable for rodent cardiac ultrasound. Male CD rats (6-10 weeks of age; 6-12 animals per group) were cannulated with a jugular vein catheter to enable delivery of test article by intravenous infusion. […] An imaging probe was fixed in position to acquire short axis (SAX), motion (M)—mode images of the left cardiac ventricle at the level of the papillary muscles. Baseline data was acquired prior to initiating test article delivery. Test article (compound as disclosed herein in a HPBCD formulation), or vehicle control, was delivered with the aid of an infusion pump connected to the jugular vein catheter. Infusion rate of test article was increased at 15 min intervals, to a maximum of 5 mL/kg/hr. Ultrasound images were acquired at 5 min intervals. Additionally whole blood (not exceeding 10 uL) was collected via a tail nick at the same 5 min intervals for subsequent exposure determination.
(§3) Whole blood samples were analyzed by protein precipitation and liquid chromatography tandem mass spectrometry (LC-MS/MS) using multiple reaction monitoring (MRM) in positive ionization mode. The lower limit of quantitation (LLOQ) in the assay was 1 ng/mL and the upper limit of quantitation (ULOQ) was 10,000 ng/mL.
Pressure-volume loop (PV Loop) protocol (invasive hemodynamics): Left ventricular catheterization with a pressure-volume transducing catheter was applied as an alternative method to derive pharmacodynamic endpoints. A pressure volume conductance catheter was inserted via the left carotid artery and advanced into the left ventricle. The electrical signal emitted from the volume catheter was used to derive measures of relative volume at 5 min intervals. From these measures, left ventricular end diastolic volume (LVEDV) and left ventricular end systolic volume (LVESV) were derived. Ejection fraction was then derived using the following formula: % EF=((LVEDV−LVESV)/LVEDV)*100. Minimally efficacious exposure (MEE) was defined as the exposure at which a 10% increase in % EF from baseline was observed. The MEE was derived by plotting assayed exposures against % EF and using non-linear curve fitting (log(exposure) vs. % EF; variable slope, 4 parameters). Response to vehicle at each time point was averaged and all test article responses were normalized to baseline and subtracted from time matched (averaged) vehicle responses. Animal preparation, vehicle/test article delivery and blood sampling for exposure determination was as described in Echocardiography/ultrasound protocol.

[2] = system: Bovine cardiac myofibrils; assay: In vitro model of dose-dependent myofibril ATPase modulation (AC1.4, pyruvate kinase/lactate dehydrogenase-coupled ATPase assay at pCa25); assay type: biochemical; details: concentration at which ATPase activity was 1.4-fold higher than the bottom of the dose curve, mean of a minimum of two independent tests
Method in brief: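 ATP turnover tracked as NADH absorbance loss at 340 nm, coupled via pyruvate kinase/lactate dehydrogenase, with 1 mM ATP, 2 mM MgCl2 and 12 mM K-PIPES at pH 6.80 (22° C) under EGTA/CaCl2 calcium buffering. Substrate was detergent-treated bovine cardiac myofibrils; 4-parameter curve fit, AC1.4 averaged over at least two runs.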

Male CD rats [3] = assay: Echocardiography/ultrasound protocol: fractional shortening (% FS) during intravenous infusion, MEE; assay type: in vivo; design: unit not given here; details: rat, formulation 40% HPbCD, corrected for rat plasma protein binding
Protocol: as §1, §2, §3
Offline data analysis of the SAX M-mode ultrasound images was conducted to derive measures of left ventricular end diastolic diameter (LVEDD), left ventricular end systolic diameter (LVESD) and subsequent calculation of fractional shortening (% FS) using the following formula: % FS=((LVEDD−LVESD)/LVEDD)*100. Minimally efficacious exposure (MEE) was defined as the exposure at which a 10% increase in % FS from baseline was observed. The MEE was derived by plotting assayed exposures against % FS and using non-linear curve fitting (log(exposure) vs. % FS; variable slope, 4 parameters). Response to vehicle at each time point was averaged and all test article responses were normalized to baseline and subtracted from time matched (averaged) vehicle responses.

[4] = Echocardiography, exposure at 10% increase in % FS from baseline

| Structure (SMILES) | MEE* (unbound), minimally efficacious exposure (Male CD rats [1]; formulation 40% HPbCD pH 4 NaOH) | AC1.4 [2] | MEE* (unbound), minimally efficacious exposure (Male CD rats [1]; formulation 40% HPbCD) | MEE* (unbound), minimally efficacious exposure (Male CD rats [3]; [4]) | MEE* (unbound), minimally efficacious exposure (Male CD rats [3]; Echocardiography and PV Loop (both protocols named for this value)) |
| --- | --- | --- | --- | --- | --- |
| N#CC1CN(S(=O)(=O)N2CCC[C@H](C(=O)N3CCC[C@@H]3C(=O)NCc3ccc(C(F)(F)F)cc3)C2)C1 [Example 67, 1-(((3S)-1-((3-cyano-1-azetidinyl)sulfonyl)-3-piperidinyl)carbonyl)-N-(4-(trifluoromethyl)benzyl)-D-prolinamide] | 1.05 | 0.07786 µM | – | – | – |
| N#CC1CN(S(=O)(=O)N2CCC[C@H](C(=O)N3CCC[C@@H]3C(=O)NCc3ccc(Cl)c(Cl)c3)C2)C1 [Example 91, 1-(((3S)-1-((3-cyano-1-azetidinyl)sulfonyl)-3-piperidinyl)carbonyl)-N-(3,4-dichlorobenzyl)-D-prolinamide] | – | 0.1384 µM | 0.04 | – | – |
| CS(=O)(=O)c1cccc(C(=O)N2CCCC[C@@H]2C(=O)N[C@@H](c2cc(F)c(Cl)cc2F)C2CC2)c1 [Example 113, (2R)-N-((R)-(4-chloro-2,5-difluorophenyl)(cyclopropyl)methyl)-1-(3-(methylsulfonyl)benzoyl)-2-piperidinecarboxamide] | – | 0.1763 µM | 0.04 | – | – |
| C[C@@H](NC(=O)[C@H]1CCCN1C(=O)[C@H]1CCCN(S(=O)(=O)N2CC(C#N)C2)C1)c1ccc(Cl)cc1 [Example 135, N-((1R)-1-(4-chlorophenyl)ethyl)-1-(((3S)-1-((3-cyano-1-azetidinyl)sulfonyl)-3-piperidinyl)carbonyl)-D-prolinamide] | – | 0.2215 µM | 0.05 | – | – |
| N#CC1CN(S(=O)(=O)N2CCN[C@H](C(=O)N3CCC[C@@H]3C(=O)NCc3ccc(C(F)(F)F)cc3F)C2)C1 [Example 200, 1-(((2S)-4-((3-cyano-1-azetidinyl)sulfonyl)-2-piperazinyl)carbonyl)-N-(2-fluoro-4-(trifluoromethyl)benzyl)-D-prolinamide] | – | 0.4083 µM | 1.02 | – | – |
| CS(=O)(=O)c1cncc(C(=O)N2[C@@H](C(=O)N[C@@H](c3cc(F)c(C(F)(F)F)cc3F)C3CC3)C[C@H]3C[C@H]32)c1 [Example 214, (1R,3R,5R)—N—((R)-cyclopropyl(2,5-difluoro-4-(trifluoromethyl)phenyl)methyl)-2-(5-(methylsulfonyl)nicotinoyl)-2-azabicyclo[3.1.0]hexane-3-carboxamide] | – | 0.4665 µM | – | 0.12 | – |
| N#CC1CN(S(=O)(=O)N2CCC[C@H](C(=O)N3CCC[C@@H]3C(=O)NCc3ccc(C(F)F)cc3)C2)C1 [Example 261, 1-(((3S)-1-((3-cyano-1-azetidinyl)sulfonyl)-3-piperidinyl)carbonyl)-N-(4-(difluoromethyl)benzyl)-D-prolinamide] | – | 0.6461 µM | 0.16 | – | – |
| CS(=O)(=O)c1cc(C(=O)N2[C@@H](C(=O)N[C@@H](c3cc(F)c(C(F)(F)F)cc3F)C3CC3)C[C@H]3C[C@H]32)ccn1 [Example 279, (1R,3R,5R)—N—((R)-cyclopropyl(2,5-difluoro-4-(trifluoromethyl)phenyl)methyl)-2-(2-(methylsulfonyl)isonicotinoyl)-2-azabicyclo[3.1.0]hexane-3-carboxamide] | – | 0.7092 µM | – | 0.68 | – |
| N#CC1CN(S(=O)(=O)N2CCC[C@H](C(=O)N3CCC[C@@H]3C(=O)NCc3cc(F)cc(F)c3)C2)C1 [Example 287, 1-(((3S)-1-((3-cyano-1-azetidinyl)sulfonyl)-3-piperidinyl)carbonyl)-N-(3,5-difluorobenzyl)-D-prolinamide] | – | 0.7212 µM | 0.47 | – | – |
| C[C@@H](NC(=O)[C@H]1CCCN1C(=O)[C@H]1CCCN(S(=O)(=O)N2CC(C#N)C2)C1)c1ccc(F)c(F)c1 [Example 301, 1-(((3S)-1-((3-cyano-1-azetidinyl)sulfonyl)-3-piperidinyl)carbonyl)-N-((1R)-1-(3,4-difluorophenyl)ethyl)-D-prolinamide] | – | 0.7943 µM | 0.19 | – | – |
| CS(=O)(=O)c1cc(C(=O)N2[C@@H](C(=O)N[C@@H](c3cc(F)c(Cl)cc3F)C3CC3)C[C@H]3C[C@H]32)ccn1 [Example 314, (1R,3R,5R)—N—((R)-(4-chloro-2,5-difluorophenyl)(cyclopropyl)methyl)-2-(2-(methylsulfonyl)isonicotinoyl)-2-azabicyclo[3.1.0]hexane-3-carboxamide] | – | 0.846 µM | – | 0.16 | – |
| C[C@@H](NC(=O)[C@H]1CCCN1C(=O)[C@H]1CCCN(S(=O)(=O)N2CC(C#N)C2)C1)c1ccc(F)cc1F [Example 325, 1-(((3S)-1-((3-cyano-1-azetidinyl)sulfonyl)-3-piperidinyl)carbonyl)-N-((1R)-1-(2,4-difluorophenyl)ethyl)-D-prolinamide] | – | 0.8883 µM | 0.41 | – | – |
| CS(=O)(=O)c1cccc(C(=O)N2CCC[C@@H]2C(=O)N[C@@H](c2ccc(C(F)(F)F)cc2F)C2CC2)c1 [Example 364, (R)—N—((R)-cyclopropyl(2-fluoro-4-(trifluoromethyl)phenyl)methyl)-1-(3-(methylsulfonyl)benzoyl)pyrrolidine-2-carboxamide] | – | 1.04 µM | – | – | 0.27 |
| CS(=O)(=O)c1cccc(C(=O)N2C[C@@H](F)C[C@@H]2C(=O)N[C@@H](c2ccc(C(F)(F)F)cc2F)C2CC2)c1 [Example 402, (2R,4S)—N—((R)-cyclopropyl(2-fluoro-4-(trifluoromethyl)phenyl)methyl)-4-fluoro-1-(3-(methylsulfonyl)benzoyl)pyrrolidine-2-carboxamide] | – | 1.381 µM | 0.18 | – | – |
